molecular target: T1, human mPGES-1 (Homo sapiens, UniProt O14684); assay: Test for mPGES-1 inhibitory activity (microsomal enzyme, PGE2 EIA); format: biochemical; settings: microsomes of COS-1 cells transfected with human mPGES-1 cDNA; PGH2 1 μM; 4° C., 4 minutes; PGE2 by EIA; read-out: h mPGES1 IC50
T1 construct: made in house; host or cells: COS-1 cells (transient transfection; microsomal fraction used as enzyme)
T1 sequence (O14684 1-152): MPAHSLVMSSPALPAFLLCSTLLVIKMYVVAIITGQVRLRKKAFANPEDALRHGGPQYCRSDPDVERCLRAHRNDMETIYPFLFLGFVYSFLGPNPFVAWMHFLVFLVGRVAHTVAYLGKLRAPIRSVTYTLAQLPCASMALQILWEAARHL
Outline: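 IC50 values were derived from EIA-quantified PGE2 after a 4 min, 4 °C reaction with PGH2 at 1 μM final, stopped with ferric chloride/citric acid. Beforehand, compound (2% DMSO final) sat 15 min at 4 °C with human mPGES-1 microsomes from transiently transfected COS-1 cells. Buffer was sodium phosphate pH 7.2 containing 2.5 mM reduced glutathione and 1 mM EDTA.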

Row | SMILES | IC50 [nM]
1 | Cc1nc(-c2c(C(F)(F)F)ccc(CNC(=O)[C@H]3C[C@H](OCc4cccc(F)c4F)C3)c2F)[nH]c(=O)c1F [Example 223, trans-3-[(2,3-difluorobenzyl)oxy]-N-[2-fluoro-3-(5-fluoro-4-methyl-6-oxo-1,6-dihydropyrimidin-2-yl)-4-(trifluoromethyl)benzyl]cyclobutane-1-carboxamide] | < 1
2 | Cc1nc(-c2c(C(F)(F)F)ccc(CNC(=O)[C@H]3C[C@H](OCc4ccc(F)cc4Cl)C3)c2F)[nH]c(=O)c1F [Example 224, trans-3-[(2-chloro-4-fluorobenzyl)oxy]-N-[2-fluoro-3-(5-fluoro-4-methyl-6-oxo-1,6-dihydropyrimidin-2-yl)-4-(trifluoromethyl)benzyl]cyclobutane-1-carboxamide] | < 1
3 | Cc1nc(-c2c(C(F)(F)F)ccc(CNC(=O)[C@H]3C[C@H](OCc4cccc(Cl)c4F)C3)c2F)[nH]c(=O)c1F [Example 225, trans-3-[(3-chloro-2-fluorobenzyl)oxy]-N-[2-fluoro-3-(5-fluoro-4-methyl-6-oxo-1,6-dihydropyrimidin-2-yl)-4-(trifluoromethyl)benzyl]cyclobutane-1-carboxamide] | < 1
4 | Cc1nc(-c2c(C(F)(F)F)ccc(CNC(=O)[C@H]3C[C@H](OCc4cc(F)cc(Cl)c4)C3)c2F)[nH]c(=O)c1F [Example 228, trans-3-[(3-chloro-5-fluorobenzyl)oxy]-N-[2-fluoro-3-(5-fluoro-4-methyl-6-oxo-1,6-dihydropyrimidin-2-yl)-4-(trifluoromethyl)benzyl]cyclobutane-1-carboxamide] | < 1

Continued, values first:

Row | IC50 [nM] | SMILES
5 | 15 | Cc1nc(-c2c(C(F)(F)F)ccc(CNC(=O)[C@H]3C[C@H](OCc4cccc(F)c4)C3)c2F)[nH]c(=O)c1F [Example 222, trans-N-[2-fluoro-3-(5-fluoro-4-methyl-6-oxo-1,6-dihydropyrimidin-2-yl)-4-(trifluoromethyl)benzyl]-3-[(3-fluorobenzyl)oxy]cyclobutane-1-carboxamide]
6 | < 1 | Cc1nc(-c2c(C(F)(F)F)ccc(CNC(=O)[C@H]3C[C@H](OCc4cc(Cl)ccc4F)C3)c2F)[nH]c(=O)c1F [Example 226, trans-3-[(5-chloro-2-fluorobenzyl)oxy]-N-[2-fluoro-3-(5-fluoro-4-methyl-6-oxo-1,6-dihydropyrimidin-2-yl)-4-(trifluoromethyl)benzyl]cyclobutane-1-carboxamide]
7 | < 1 | Cc1nc(-c2c(C(F)(F)F)ccc(CNC(=O)[C@H]3C[C@H](OCc4ccc(F)c(Cl)c4)C3)c2F)[nH]c(=O)c1F [Example 227, trans-3-[(3-chloro-4-fluorobenzyl)oxy]-N-[2-fluoro-3-(5-fluoro-4-methyl-6-oxo-1,6-dihydropyrimidin-2-yl)-4-(trifluoromethyl)benzyl]cyclobutane-1-carboxamide]
8 | < 1 | CCc1nc(-c2c(C(F)(F)F)ccc(CNC(=O)[C@H]3C[C@H](OCc4ccccc4Cl)C3)c2F)[nH]c(=O)c1F [Example 229, trans-3-[(2-chlorobenzyl)oxy]-N-[3-(4-ethyl-5-fluoro-6-oxo-1,6-dihydropyrimidin-2-yl)-2-fluoro-4-(trifluoromethyl)benzyl]cyclobutane-1-carboxamide]
9 | < 1 | CCc1nc(-c2c(C(F)(F)F)ccc(CNC(=O)[C@H]3C[C@H](OCc4cccc(Cl)c4)C3)c2F)[nH]c(=O)c1F [Example 230, trans-3-[(3-chlorobenzyl)oxy]-N-[3-(4-ethyl-5-fluoro-6-oxo-1,6-dihydropyrimidin-2-yl)-2-fluoro-4-(trifluoromethyl)benzyl]cyclobutane-1-carboxamide]
10 | < 1 | CCc1nc(-c2c(C(F)(F)F)ccc(CNC(=O)[C@H]3C[C@H](OCc4ccc(Cl)cc4)C3)c2F)[nH]c(=O)c1F [Example 231, trans-3-[(4-chlorobenzyl)oxy]-N-[3-(4-ethyl-5-fluoro-6-oxo-1,6-dihydropyrimidin-2-yl)-2-fluoro-4-(trifluoromethyl)benzyl]cyclobutane-1-carboxamide]

— US20250340557A1, “PYRIMIDINE DERIVATIVE” (ASKA PHARMACEUTICAL CO., LTD., priority 2022, published 2025)
